Data as given in patent publication US20130267571A1, “TERPENOID ANALOGUES AND USES THEREOF FOR TREATING NEUROLOGICAL CONDITIONS” (NeuroQuest Inc., priority 2010, published 2013).

Columns and labels:
[1] = tested on: voltage-gated Na+ channels; assay: Sodium (Na+) channel analysis in rat DRG neurons using whole cell patch-clamp; type: cell-based; conditions: Na+ currents in isolated rat DRG neurons, 3 min in presence of drug, read-out: IC50 range
Experimental: Isolated DRG neurons were suspended in primary neuron basal media and placed on glass coverslips for incubation in humidified atmosphere of 5% CO2 at 37° C. Coverslips carrying cells was transferred to the bath of an inverted microscope (Zeiss), continuously perfused with oxygenated artificial cerebro-spinal fluid (ACSF) containing (in mM) 124 NaCl, 2.5 KCl, 2 CaCl2, 1 MgSO4, 25 NaHCO3, 1 NaH2PO4, and 10 glucose, at a rate of 2-3 ml/min. Recording of whole-cell membrane currents were made at room temperature. Recording pipette (4-6 MS2) was filled with internal solution containing (in mM) 145 K-gluconate, 5 NaCl, 1 MgCl2, 0.2 EGTA, 10 HEPES, 2 Mg-ATP, 0.1 Na-GTP, and 10 phosphocreatine. To isolate Na^+ currents, DRG neurons were superfused with ACSF containing tetraethylammonium chloride (TEA) 5 mM, cesium chloride (CsCl) 100 μM and cadmium chloride (CdCl) 1 mM, to block potassium and calcium currents. NQ compounds were freshly dissolved in ASCF containing TEA, CsCl and CdCl, prior application via the bath.
For recording Na^+ currents, cells were held at −60 mV before applying a conditioning hyperpolarizing step (50 ms) to −90 mv to reactivate the voltage-gated Na^+ channels. The conditioning pulse was followed by depolarizing (150 ms) test pulses to 50 mV in 10 mV increments. Na^+ currents were recorded in absence, after 3 min in presence of the drugs and after a recovery time of 3 min.

TRPV1 = TRPV1 (Homo sapiens, UniProt Q8NER1); assay: TRPV1 assay, calcium imaging; type: cell-based
Sequence of TRPV1 (Q8NER1 whole entry, species assumed): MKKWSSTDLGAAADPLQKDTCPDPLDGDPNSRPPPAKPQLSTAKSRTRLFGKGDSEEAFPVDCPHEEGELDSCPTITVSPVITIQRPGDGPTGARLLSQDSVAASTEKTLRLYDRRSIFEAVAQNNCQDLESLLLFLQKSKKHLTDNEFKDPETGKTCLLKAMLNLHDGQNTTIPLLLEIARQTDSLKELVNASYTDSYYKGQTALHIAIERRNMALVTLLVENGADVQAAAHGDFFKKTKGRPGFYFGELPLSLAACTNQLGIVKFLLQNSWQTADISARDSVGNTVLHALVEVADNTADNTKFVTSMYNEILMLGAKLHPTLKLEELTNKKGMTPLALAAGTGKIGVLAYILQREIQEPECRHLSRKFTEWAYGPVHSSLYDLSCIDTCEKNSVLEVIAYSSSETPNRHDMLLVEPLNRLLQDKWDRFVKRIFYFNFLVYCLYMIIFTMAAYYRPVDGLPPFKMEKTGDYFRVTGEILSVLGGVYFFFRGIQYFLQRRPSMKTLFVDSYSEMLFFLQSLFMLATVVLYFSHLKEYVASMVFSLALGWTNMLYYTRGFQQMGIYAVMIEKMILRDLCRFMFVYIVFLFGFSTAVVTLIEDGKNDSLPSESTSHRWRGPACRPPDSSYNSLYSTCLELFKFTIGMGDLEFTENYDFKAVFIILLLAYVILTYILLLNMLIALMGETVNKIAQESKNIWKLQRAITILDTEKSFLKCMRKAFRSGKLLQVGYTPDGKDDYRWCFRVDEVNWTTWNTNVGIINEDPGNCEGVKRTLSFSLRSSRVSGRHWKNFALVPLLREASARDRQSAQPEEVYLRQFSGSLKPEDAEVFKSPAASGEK
Experimental: Briefly, cells are seeded into poly-L-lysine-coated, glass-bottom, 24-well plates (1×10^5 cells/well) and incubated overnight under standard culture conditions to achieve the desired confluency. Culture media is removed and cells washed twice with HBS prior to incubation for 15 to 60 min at 37° C. with a labelling mixture comprised of Fura-2-AM and pluronic acid in HBS. Data collection occurs over an eight minute period and follows the same general sequence. Following loading, cells are stimulated by addition of 1 μM of capsaicin agonist for 2 min, after which a concentration series of the test sample (e.g., (0.5, 5, 10, 50 μg/ml) is added and imaging continued for an additional 5 min. Capsazepine (20 μM) serves as a known reference antagonist, while cells that are mock-treated or receive vehicle (e.g., DMSO) alone serve as negative controls. For imaging, plates are placed on the stage of an inverted epifluorescence microscope (e.g. Axiovert 200, Zeiss) equipped with a CCD digital camera (e.g., Axiocam MRm, Zeiss). For each well of the plate, a sequence of image pairs (excitation at 340 nm and 380 nm) are collected to capture intracellular calcium flux. Image sequences are analyzed in Image) (NIH) and average pixel intensities calculated for six representative cells in each test condition to achieve mean fluorescence.

zebrafish embryos = assay: Zebrafish response (anaesthesia) assay, touch response/swim behaviour; type: in vivo; conditions: Danio rerio, 1.5 h; complete anaesthesia (scale 1) in 50% of AB wild type embryos (54 hpf), 90 min at 28° C.
Description: Briefly, the ZEA assay involves applying essential oils, fractions or individual compounds to developmentally staged zebrafish embryos followed by monitoring of embryonic touch response/swim behaviour and evaluation of the dose response relationship for each substance. Using a four point scale to describe the embryonic behaviours (Table 4), initial analysis focused on monitoring and recording these changes and evaluating the level of bioactivity. The effective concentration to generate complete anaesthesia in 50% of the embryos (EC50), were evaluated as follows:
Compounds are tested on developmentally staged AB “wild type” zebrafish embryos (54 hpf+/−2 hpf) at concentrations ranging between 10 and 400 μM.
Each compound is diluted in a 95% ethanol or DMSO carrier to create a working stock solution from which appropriate dilutions are made in standard embryo E3 media.
1000 μl of each concentration or appropriate carrier control are added to 10 wild type AB embryos in a single well of a 24 well plate, in duplicate.
The embryos are incubated for 90 min at 28° C. (optimal temperature for embryonic growth) in the diluted compound.
A four point scale (Table 4) is used to evaluate the touch response and swim behaviour for each embryo in all wells.
The effectiveness of the compound will be based on its ability to generate complete anaesthesia (scale: 1) in 50% of the embryos at a given concentration (EC50).
The EC50 values are calculated using GraphPad Prism® software to analyze the log (dose) response curves.

Compound | IC50 [1] [µM] | further results
CC(C)=CCC/C(C)=C/S(=O)(=O)Nc1ccccc1 [NQ 3070, (E)-2,6-dimethyl-N-phenylhepta-1,5-diene-1-sulfonamide] | 100 to 1000 | –
CC(C)=CCC/C(C)=C/C(N)C(C)C (centres unmarked) [NQ 3082, (E)-2,5,9-trimethyldeca-4,8-dien-3-amine] | < 100 | –
CC(C)=CCC/C(C)=C/C(O)C(C)C (centres unmarked) [NQ 3083, (E)-2,5,9-trimethyldeca-4,8-dien-3-ol] | 1000 to 5000 | –
CC(C)=CCC/C(C)=C/S(N)(=O)=O [NQ 3063, (E)-2,6-dimethylhepta-1,5-diene-1-sulfonamide] | 1000 to 5000 | –
CC(C)=CCC/C(C)=C/S(=O)(=O)N(C)C [NQ 3051, (E)-N,N,2,6-tetramethylhepta-1,5-diene-1-sulfonamide] | 100 to 1000 | –
CC(C)=CCC/C(C)=C/C=O [NQ 2983, (E)-3,7-dimethylocta-2,6-dienal] | 1000 to 5000 | IC50 (TRPV1; Ca2+ imaging (Fura-2-AM) after stimulation with 1 μM capsaicin): 493 to 657 µM; IC50 (TRPV1; FIG. 2, Ca2+ imaging in HEK-TRPV cells): 493 µM; EC50 (zebrafish embryos): 113 µM
CC(C)=CCC/C(C)=C/C(O)(C(F)(F)F)C(F)(F)F [NQ 3067, (E)-1,1,1-trifluoro-4,8-dimethyl-2-(trifluoromethyl)nona-3,7-dien-2-ol] | 100 to 1000 | –
CC(C)=CCC/C(C)=C/C(=O)C(F)(F)F [NQ 3066, (E)-1,1,1-trifluoro-4,8-dimethylnona-3,7-dien-2-one] | 1000 to 5000 | –
CC(C)=CCC/C(C)=C/C(N)=O [NQ 2992, (E)-3,7-dimethylocta-2,6-dienamide] | 100 to 1000 | –
CC(C)=CCC/C(C)=C/C(=O)N(C)C [NQ 2988, (E)-N,N,3,7-tetramethylocta-2,6-dienamide] | 1000 to 5000 | –
CC(C)=CCC/C(C)=C/CNC(=O)c1ccccc1 [NQ 2982, (E)-N-(3,7-dimethylocta-2,6-dienyl)benzamide] | 1000 to 5000 | EC50 (zebrafish embryos): 103 µM
CC(C)=CCC/C(C)=C/S(=O)(=O)NCc1ccccc1 [NQ 3071, (E)-N-benzyl-2,6-dimethylhepta-1,5-diene-1-sulfonamide] | 100 to 1000 | –
CC(C)=CCC/C(C)=C/C(=O)Nc1ccccc1 [NQ 2986, (E)-3,7-dimethyl-N-phenylocta-2,6-dienamide] | 5000 to 10000 | EC50 (zebrafish embryos): 449 µM
CON(C)C(=O)/C=C(\C)CCC=C(C)C [NQ 3052, (E)-N-methoxy-N,3,7-trimethylocta-2,6-dienamide] | 100 to 1000 | –
CC(C)=CCC/C(C)=C/S(C)(=O)=O [NQ 3047, (E)-2,6-dimethyl-1-(methylsulfonyl)hepta-1,5-diene] | 1000 to 5000 | –
CC(C)=CCC/C(C)=C\C(=O)O [NQ 3001, (Z)-3,7-dimethylocta-2,6-dienoic acid] | > 10000 | –
CC(C)=CCC/C(C)=C/COCc1ccccc1 [NQ 2977, (E)-((3,7-dimethylocta-2,6-dienyloxy)methyl)benzene] | 1000 to 5000 | –
CC(C)=CCC/C(C)=C/C(=O)O [NQ 2984, (E)-3,7-dimethylocta-2,6-dienoic acid] | 1000 to 5000 | EC50 (zebrafish embryos): > 200 µM
CC(C)=CCC/C(C)=C/C(=O)N(C)O [NQ 3055, (E)-N-hydroxy-N,3,7-trimethylocta-2,6-dienamide] | 100 to 1000 | –
CC(C)=CCC/C(C)=C/C(O)C(F)(F)F (centres unmarked) [NQ 3065, (E)-1,1,1-trifluoro-4,8-dimethylnona-3,7-dien-2-ol] | 100 to 1000 | –
CC(C)=CCCC(C)=CC(=O)O [NQ 2978, 3,7-dimethyloct-2,6-dienoic acid] | > 10000 | EC50 (zebrafish embryos): 71.1 µM
CC(C)=CCC/C(C)=C\S(=O)(=O)N(C)C [NQ 3050, (Z)-N,N,2,6-tetramethylhepta-1,5-diene-1-sulfonamide] | 100 to 1000 | –
CC(C)=CCC/C(C)=C\C=O [NQ 3000, (Z)-3,7-dimethylocta-2,6-dienal] | 5000 to 10000 | –
CC(C)=CCC/C(C)=C\S(=O)(=O)NCC(F)(F)F [NQ 3069, (Z)-2,6-dimethyl-N-(2,2,2-trifluoroethyl)hepta-1,5-diene-1-sulfonamide] | 100 to 1000 | –
CC(C)=CCC/C(C)=C/C(N)c1ccccc1 (centres unmarked) [NQ 3085, (E)-3,7-dimethyl-1-phenylocta-2,6-dien-1-amine] | < 100 | –
CC(C)=CCCC(C)=Cc1nn[nH]n1 [NQ 3045, 5-(2,6-dimethylhepta-1,5-dien-1-yl)-2H-tetrazole] | 1000 to 5000 | –
CC(C)=CCC/C(C)=C/CNC(=O)c1ccccc1O [NQ 2987, (E)-N-(3,7-dimethylocta-2,6-dienyl)-2-hydroxybenzamide] | 1000 to 5000 | EC50 (zebrafish embryos): 134 µM
CC(C)=CCC/C(C)=C/S(=O)(=O)NCC(F)(F)F [NQ 3064, (E)-2,6-dimethyl-N-(2,2,2-trifluoroethyl)hepta-1,5-diene-1-sulfonamide] | 1000 to 5000 | –
CC(C)=CCC/C(C)=C/C(N)CCCO (centres unmarked) [NQ 3084, (E)-4-amino-6,10-dimethylundeca-5,9-dien-1-ol] | 100 to 1000 | –
CC(C)=CCC/C(C)=C/C(N)Cc1ccccc1 (centres unmarked) [NQ 3089, (E)-4,8-dimethyl-1-phenylnona-3,7-dien-2-amine] | < 100 | –

More lines, main results first:

IC50 [1] [µM] | Compound | further results
1000 to 5000 | CNS(=O)(=O)/C=C(\C)CCC=C(C)C [NQ 3060, (E)-N,2,6-trimethylhepta-1,5-diene-1-sulfonamide] | –
1000 to 5000 | COC/C=C(\C)CCC=C(C)C [NQ 2976, (E)-1-methoxy-3,7-dimethylocta-2,6-diene] | EC50 (zebrafish embryos): 874 µM
1000 to 5000 | CNC(=O)/C=C(\C)CCC=C(C)C [NQ 2991, (E)-N,3,7-trimethylocta-2,6-dienamide] | –
1000 to 5000 | CNC/C=C(\C)CCC=C(C)C [NQ 3007, (E)-N,3,7-trimethylocta-2,6-dien-1-amine] | –
< 100 | CC(C)=CCC/C(C)=C/CN (single isomer, unassigned) [NQ 2981, (E)-3,7-dimethylocta-2,6-dien-1-amine] | EC50 (zebrafish embryos): 217 µM
1000 to 5000 | CC(C)=CCC/C(C)=C/CN(C)C [NQ 2990, (E)-N,N,3,7-tetramethylocta-2,6-dien-1-amine] | –
1000 to 5000 | CC(C)=CCC/C(C)=C\[S+](C)[O-] (centres unmarked) [NQ 3062, (Z)-2,6-dimethyl-1-(methylsulfinyl)hepta-1,5-diene] | –
< 100 | CCCC(N)/C=C(\C)CCC=C(C)C (centres unmarked) [NQ 3081, (E)-6,10-dimethylundeca-5,9-dien-4-amine] | –
1000 to 5000 | CC(C)=CCC/C(C)=C/[S+](C)[O-] (centres unmarked) [NQ 3057, (E)-2,6-dimethyl-1-(methylsulfinyl)hepta-1,5-diene] | –
100 to 1000 | CNS(=O)(=O)/C=C(/C)CCC=C(C)C [NQ 3061, (Z)-N,2,6-trimethylhepta-1,5-diene-1-sulfonamide] | –
1000 to 5000 | CC(C)=CCC/C(C)=C/C[S+](C)[O-] (centres unmarked) [NQ 3054, (E)-3,7-dimethyl-1-(methylsulfinyl)octa-2,6-diene] | –
< 100 | CCC(N)/C=C(\C)CCC=C(C)C (centres unmarked) [NQ 3078, (E)-5,9-dimethyldeca-4,8-dien-3-amine] | –
1000 to 5000 | CC(C)=CCC/C(C)=C/CS(C)(=O)=O [NQ 3053, (E)-3,7-dimethyl-1-(methylsulfonyl)octa-2,6-diene] | –
100 to 1000 | CC(C)=CCC/C(C)=C/C(C)N (centres unmarked) [NQ 3079, (E)-4,8-dimethylnona-3,7-dien-2-amine] | –
1000 to 5000 | CC(=O)NC/C=C(\C)CCC=C(C)C [NQ 2985, (E)-N-(3,7-dimethylocta-2,6-dienyl)acetamide] | EC50 (zebrafish embryos): 264 µM
